Entries after “also recorded” stand apart in the source; their conditions may differ. Values belong to the compound of their own block, whether it stands above or below them.
How the values were obtained:
FKBP12.6 [1] = biological target: T1, FKBP12.6 (Bos taurus, UniProt P68107); assay: Inhibition of PPIase activity of FKBP12.6; assay type: biochemical, bovine (calf brain)
T1 construct: The FKBP12.6 protein has been isolated and purified from calf brain; from tissue; host or cells: calf brain cytosol
T1 sequence (P68107 whole entry): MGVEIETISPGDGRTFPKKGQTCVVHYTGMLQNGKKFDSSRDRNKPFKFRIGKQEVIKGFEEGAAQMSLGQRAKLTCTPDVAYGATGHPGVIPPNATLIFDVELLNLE
Method: (§1) PPIase assays were performed as described (Fischer, G., et al., Nature, 337,476-478 (1989)) with the following changes: the peptide substrate used was N-succinyl-Ala-Leu-Pro-Phe-p-nitroanilide (BACHEM, California) at a final concentration of 72 μM and chymotrypsin (Sigma) was present in the assay at a concentration of 6 μM. The total reaction volume was 1.5 ml. The release of p-nitroanilide by chymotrypsin was measured by following the increase in absorbance at 405 nm on a Beckman DU68 spectrophotometer. After an initial rapid rise in absorbance due to hydrolysis of the trans peptide, the slow secondary increase in absorbance which reflects the cis-to-trans conversion of the peptide by the PPIase was measured at 3 sec intervals out to 1.5 min. The data were fitted to a simple first-order rate equation and the first-order rate constant, k (s^-1), calculated.

[2] = literature; cited from earlier work
FKBP12.6 [3] = biological target: T1, FKBP12.6; assay: [3H]dihydroFK-506 direct binding (LH-20 assay), Scatchard, FKBP12.6; set-up: species or system bovine (calf brain); settings: direct binding data, Scatchard format
Method: (§2) The basic LH-20 binding assay was performed as described by Handschumacher,R., et al., Science, 226, 544-547 (1984) with the modifications noted in Siekierka, J., et al., Nature, 341, 755-757 (1989).

FKBP12 = FKBP12 (Homo sapiens, UniProt P62942); assay: [3H]dihydroFK-506 direct binding, FKBP12; settings: unit inferred
FKBP12, sequence (P62942 whole entry, species assumed): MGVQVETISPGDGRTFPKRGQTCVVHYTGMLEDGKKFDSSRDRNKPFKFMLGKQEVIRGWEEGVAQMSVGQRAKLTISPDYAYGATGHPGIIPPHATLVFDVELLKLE
Method: as §2

JURKAT cells = assay: IL-2 secretion in JURKAT cells stimulated with PMA and ionomycin; assay type: cell-based, human
calcineurin [4] = assay: Calcineurin phosphatase assay; assay type: biochemical, bovine
Method: For a side-by-side comparison, FKBP12 was also tested for its ability to inhibit calcineurin in the presence of drug.
The calcineurin phosphatase assay is a modified version of previous assays (Liu, J., et al., Cell, 66, 807-815 (1991); Manalan, A., et al., Proc. Natl. Acad. Sci. U.S.A., 80, 4291-4295 (1983)). Reaction mixtures ([…] contained: 40 mM Tris (pH 8), 100 mM NaCl, 6 mM Mg(OAc)2, 0.1 mM CaCl2, 0.1 mg/ml BSA, 0.5 mM dithiothreitol, 190 nM bovine brain calmodulin (Sigma), 3 nM bovine brain calcineurin (Sigma), and 40 μM [^33 P]RII peptide (Peptides International) (600 cpm/pmole). Reaction mixtures were pre-incubated for 30 min at 30° C. prior to addition of the labeled peptide. The reaction was initiated by addition of the peptide and the dephosphorylation reaction was allowed to proceed for 10 min at 30° C. The reaction was terminated by the addition of 0.5 ml of 5% trichloroacetic acid containing 100 mM sodium phosphate (stop buffer) and applied to a 0.5 ml Dowex 50W-X8, H^+ column. Free [^33 P]phosphate was eluted from the column with 0.5 ml of stop buffer followed by 0.5 ml of water.

[5] = FK-506 specific binding activity of FKBP12.6 preparations (LH-20 assay)
Method: However, FKBP12.6 is separated completely from authentic FKBP12 in Step II by chromatography on the CM-450M column. FKBP12.6 remains bound to the CM column while FKBP12 flows through during loading and washing. FKBP12.6 elutes from the column between 100 and 200 mM NaCl and Westerns of the gradient fractions using the anti-C-terminal peptide antibody confirm that there is no trace of FKBP12 present in the FKBP12.6 fractions. Because of the presence of FKBP12 in the S200, the recovery of FKBP12.6 may only be calculated from the CM-450M step forward using the standard LH-20 binding assay (Handschumacher, R., et al., Science. 226, 544-547 (1984)).
Starting with approximately 60 grams of protein in the crude cytosolic brain extract, a typical yield after purification is about 50 μg of homogeneous FKBP12.6 (see Table I). […] FKBP12.6 was eluted from the resin with 4M guanidine-HCl and renatured by dialysis. […] This calculates to a 3,271-fold purification from the CM-450M step. Because the CM-450M step removes 94% of the protein from the crude extract, the overall s purification from the S200 is actually much greater. In calf brain cytosol then, FKBP12.6 is clearly much less abundant than FKBP12 is in calf thymus which was purified from that tissue 337-fold to homogeneity with almost the identical recovery (Siekierka, J., et al., Nature, 341, 755-757 (1989)). […] A second explanation for the lower than expected binding is that the LH-20 assay used to estimate binding is not an equilibrium binding assay and ligand off-rates will result in lower calculated specific binding activities. A third explanation is that all of the FKBP12.6 may not be […] properly and the […] protein may not bind effectively.
as §2

calcineurin [6] = assay: FKBP.FK-506.CaN complex-formation assay (size-exclusion column, Western analysis); assay type: binding, bovine; settings: Ca^2+
Method: In the modified assay, samples were assayed by Western analysis using the anti-C-terminal peptide antibody in order to identify FKBP12 and FKBP12.6 in various chromatographic fractions.
In the first experiment, FKBP12 and FKBP12.6 were partially purified by preparative HPLC gel filtration chromatography on a Bio-Sil TSK-125 column. These partially purified FKBPs (containing both FKBP12 and FKBP12.6) are devoid of CaN which separates completely from them on this column. FKBP12 and FKBP12.6 co-elute at fractions 26 and 27 on the analytical sizing column (G2000SW) used in this experiment. […] Because this crude FKBP material also contains FKBP12.6, it can also be observed migrating slightly above FKBP12 in FIG. 4A.
To more carefully examine the requirements for FKBP12.6 complex formation with CaN, experiments were conducted using purified FKBP12.6.
The incubation buffer contained 20 mM Tris (pH 7.5), 100 mM NaCl, 6 mM MgCl2, 0.1 mM CaCl2, 0.1 mg/ml BSA, and 0.5 mM dithiothreitol. The incubation reaction was chromatographed on a Bio-Sil SEC400 HPLC column (Bio-Rad) at a flow rate of 1 ml/min and 1 min fractions were collected. The chromatography buffer was the same as the incubation buffer except that BSA was omitted. 30 μl of fractions 19-29 were subjected to electrophoresis on a 16% Novex Tris-Glycine gel and Western analysis was performed as described above.

[7] = Peptidyl-prolyl cis-trans isomerase (PPIase) activity; assay type: biochemical
Method: as §1

Heat stability = assay type: physicochemical
[8] = FK-506 specific binding activity of FKBP12.6 preparations (LH-20 assay); settings: Step II. CM-650M
[9] = partially purified FKBP12.6 (Step VI)

Compound: C=CCC1C=C(C)CC(C)CC(OC)C2OC(O)(C(=O)C(=O)N3CCCCC3C(=O)OC(C(C)=CC3CCC(O)C(OC)C3)C(C)C(O)CC1=O)C(C)CC2OC (stereo not drawn) [FK-506, 17-allyl-1,14-dihydroxy-12-[2'-(4"-hydroxy-3"-methoxycyclohexyl)-1'-methylvinyl]-23,25-dimethoxy-13,19,21,27-tetramethyl-11,28-dioxa-4-azatricyclo-[22.3.1.0^4,9]octacos-18-ene-2,3,10,16-tetraone]
specific inhibition of FKBP12.6 PPIase activity (FKBP12.6 [1]; Example 4): specifically inhibited by FK-506
inhibition of PPIase activity of FKBP12.6 (FKBP12.6 [1]; [9]): potent inhibitors
neurological toxicities [2]: neurological toxicities, which include drowsiness, lethargy, tremors, and aggressiveness

Kd (FKBP12.6 [3]): 0.55 nM
Kd (FKBP12): 0.4 nM
Compound: [3H]CC([3H])C[C@@H]1/C=C(\C)C[C@H](C)C[C@H](OC)[C@H]2O[C@@](O)(C(=O)C(=O)N3CCCC[C@H]3C(=O)O[C@H](/C(C)=C/[C@@H]3CC[C@@H](O)[C@H](OC)C3)[C@H](C)[C@@H](O)CC1=O)[C@H](C)C[C@@H]2OC (stereo partly drawn) [[^3 H]dihydroFK-506]
inhibition of IL-2 secretion (JURKAT cells; JURKAT cells, PMA and ionomycin): potent inhibitor
potency relative to parent compound (times less potent) (JURKAT cells; inhibition of IL-2 secretion, parent FK-506): 5 times

Compound: CO[C@H]1C[C@@H]2CC[C@@H](C)[C@@](O)(O2)C(=O)C(=O)N2CCCC[C@H]2C(=O)O[C@H]([C@H](C)C[C@@H]2CC[C@@H](O)[C@H](OC)C2)CC(=O)[C@H](C)/C=C(\C)[C@@H](O)[C@@H](OC)C(=O)[C@H](C)C[C@H](C)/C=C/C=C/C=C/1C [rapamycin]
inhibition of PPIase activity of FKBP12.6 (FKBP12.6 [1]; [9]): potent inhibitors
inhibition of PPIase activity relative to FK-506 (FKBP12.6 [1]; [9]): somewhat better inhibitor than FK-506

IC50 (calcineurin [4]; in presence of FK-506, CaN, CaM, Ca^2+, Mg^2+, read-out: IC50 for inhibition of CaN): 16 nM
FK-506 Binding (ng FK-506 bound/mg protein) ([5]; Step III. TSK-125 HPLC): 4.23 ng FK-506 bound/mg protein
FK-506 Binding (ng FK-506 bound/mg protein) ([5]; Step IV. CM-3SW HPLC): 13.3 ng FK-506 bound/mg protein
FK-506 Binding (ng FK-506 bound/mg protein) ([5]; Step V. Phenyl-5PW HPLC): 52.85 ng FK-506 bound/mg protein
FK-506 Binding (ng FK-506 bound/mg protein) ([5]; Step VI. G2000SW HPLC, about 25% pure): 1278.3 ng FK-506 bound/mg protein
FK-506 Binding (ng FK-506 bound/mg protein) ([5]; Step VII. FK-506 Affinity): 4874.0 ng FK-506 bound/mg protein
theoretical specific binding activity ([5]; assuming mass of 12.6 kDa and 1 mole FK-506 per mole protein): 64 mg of [^3 H]dihydroFK-506 per
retention of binding to FK-506 ([5]; renatured material): retains binding to FK-506
FK-506 Binding (ng FK-506 bound/mg protein) [8]: 1.49 ng FK-506 bound/mg protein
Compound: FKBP12.6: homogeneous cytosolic binding protein for FK-506, 10-12 kilodaltons, from calf brain; partial sequence SEQ ID NO: 1
ability to block CaN phosphatase activity relative to FKBP12 (calcineurin [4]; in presence of FK-506, FIG. 5): almost equipotent to FKBP12
specific binding activity ([5]; FKBP12.6 characteristic, summary): about 4.8 micrograms FK-506 per mg FKBP12.6 protein
specific binding activity ([5]; purified FKBP12.6): 4.8 μg of [^3 H]dihydroFK-506 per mg of protein
complex formation with CaN (calcineurin [6]; partially purified FKBPs, CaM, Mg^2+ and FK-506): Most of the FKBP12.6 is shifted to a high molecular weight complex
complex formation with CaN (calcineurin [6]; purified FKBP12.6, CaM, Mg^2+ and FK-506): all of the immunoreactive FKBP12.6 is shifted to fractions (20-22)
complex formation with CaN (calcineurin [6]; purified FKBP12.6, CaM, Mg^2+, without FK-506): continues to elute at fractions 26 and 27
PPIase activity compared with FKBP12 ([7]; 25% purity of FKBP12.6 factored in): virtually equivalent to that of FKBP12
PPIase activity ([7]; Example 4): low, but significant PPIase activity
PPIase activity ([7]; material from step VI): did have PPIase activity
PPIase activity ([7]; renatured material (Step VII)): did not have PPIase activity
stability to heating (Heat stability; 56° C. for 30 minutes): not stable upon heating; also recorded: unstable to heating
effect of heat-treatment step (Heat stability; cytosolic extract from calf brain): complete loss of FKBP12.6
